Test results from PubChem BioAssay (NCI).
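48-hour exposure; five concentrations; linearly interpolated endpoints. TGI denotes the concentration required for complete inhibition of growth.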

Key:
Experiment in all cases: NCI tumour cell line growth inhibition, 48 h
[1] = test system: SR leukemia
[2] = test system: U251 CNS
[3] = test system: HCT-116 colon
[4] = test system: MDA-MB-231 breast
[5] = test system: MDA-N
[6] = test system: NCI-H522 lung
[7] = test system: SF-295 CNS
[8] = test system: SF-539 CNS
[9] = test system: UO-31 renal
[10] = test system: NCI/ADR-RES ovarian

NC1CC(=O)c2csc(Br)c21 (configuration not stated)
TGI [1]: 47.5 µM | TGI [2]: > 60 µM | TGI [3]: > 44.2 µM | TGI [4]: > 53.6 µM | TGI [5]: 28.4 µM | TGI [6]: 8.21 µM | TGI [7]: > 100 µM | TGI [8]: 8.24 µM | TGI [9]: 30.7 µM | TGI [10]: 44.4 µM

Cc1ccc2c(c1)NC(=O)CCSSCCC(=O)N2
TGI [1]: > 100 µM | TGI [2]: > 100 µM | TGI [3]: > 100 µM | TGI [4]: > 100 µM | TGI [5]: > 100 µM | TGI [6]: > 100 µM | TGI [7]: > 100 µM | TGI [8]: > 100 µM | TGI [9]: > 100 µM | TGI [10]: > 100 µM

CC(=O)O[C@H]1C[C@]2(C)C(CCC3O[C@@]32C)[C@@]2(CC(c3ccoc3)OC2O)[C@@H]1C (some centres not stated)
TGI [1]: > 100 µM | TGI [2]: > 100 µM | TGI [3]: > 100 µM | TGI [4]: > 100 µM | TGI [5]: > 100 µM | TGI [6]: > 100 µM | TGI [7]: > 100 µM | TGI [8]: > 100 µM | TGI [9]: > 100 µM | TGI [10]: > 100 µM

COC(=O)NCCc1[nH]nc2c1C(=O)C=C(Nc1ccccc1)C2=O
TGI [1]: 65.2 µM | TGI [2]: 42.2 µM | TGI [3]: 54.9 µM | TGI [4]: 87.7 µM | TGI [5]: 33.2 µM | TGI [6]: 28.6 µM | TGI [7]: > 100 µM | TGI [8]: 52.4 µM | TGI [9]: > 100 µM | TGI [10]: 70.3 µM

CC(=O)Oc1ccc2c(c1)c1c(=O)oc(N(C)C)nc1n2Cc1ccccc1
TGI [1]: > 100 µM | TGI [2]: > 100 µM | TGI [3]: > 100 µM | TGI [4]: > 100 µM | TGI [5]: > 100 µM | TGI [6]: > 100 µM | TGI [7]: > 100 µM | TGI [8]: > 100 µM | TGI [9]: > 81.8 µM | TGI [10]: > 100 µM

O=C1NC2(CCCCC2)N=C2C(Cl)CCCC12Cl (configuration not stated)
TGI [1]: > 100 µM | TGI [2]: > 100 µM | TGI [4]: > 100 µM | TGI [5]: > 100 µM | TGI [6]: > 100 µM | TGI [7]: > 100 µM | TGI [8]: > 100 µM | TGI [9]: > 100 µM | TGI [10]: > 100 µM

CN1C(c2ccccc2)=CC(=O)C(O)=C(c2ccccc2)S1(=O)=O
TGI [1]: > 100 µM | TGI [2]: > 100 µM | TGI [3]: > 100 µM | TGI [4]: > 100 µM | TGI [5]: > 100 µM | TGI [6]: > 100 µM | TGI [7]: > 100 µM | TGI [8]: > 100 µM | TGI [9]: > 100 µM | TGI [10]: > 100 µM

COC(=O)C1=Nc2c(C)nn(-c3ccccc3)c2N=C(c2ccc(C)cc2)C1
TGI [1]: > 10 µM | TGI [2]: > 10 µM | TGI [3]: > 10 µM | TGI [4]: > 10 µM | TGI [5]: > 10 µM | TGI [6]: > 10 µM | TGI [7]: > 10 µM | TGI [8]: > 10 µM | TGI [10]: > 10 µM

CC(C)CCC1(O)O[C@H]2C[C@H]3[C@@H]4CCC5CC(=O)C=C[C@]5(C)[C@H]4CC[C@]3(C)[C@H]2[C@@H]1C (some centres not stated)
TGI [1]: 22.6 µM | TGI [2]: 23.7 µM | TGI [3]: 19.3 µM | TGI [4]: 28.2 µM | TGI [5]: 27 µM | TGI [6]: 3.8 µM | TGI [7]: 24 µM | TGI [8]: 31.7 µM | TGI [9]: 30.3 µM | TGI [10]: 33.1 µM

O=C1C2C=CC1C1C(=O)OC(=O)C21 (configuration not stated)
TGI [1]: > 100 µM | TGI [2]: > 100 µM | TGI [3]: > 100 µM | TGI [4]: > 100 µM | TGI [5]: > 100 µM | TGI [6]: > 100 µM | TGI [7]: > 100 µM | TGI [8]: > 100 µM | TGI [9]: > 100 µM | TGI [10]: > 100 µM

COc1ccc2c3c1OC1C(=O)C=CC4(O)C(C2)NCC[C@@]314 (some centres not stated)
TGI [1]: 35.8 µM | TGI [2]: 7.15 µM | TGI [3]: 6.32 µM | TGI [4]: 9.01 µM | TGI [5]: 4.91 µM | TGI [6]: 1.99 µM | TGI [7]: 14.9 µM | TGI [8]: 4.02 µM | TGI [9]: 8.53 µM | TGI [10]: 20.3 µM

CC(C)(C)c1ccc(CN2CCN(C(c3ccccc3)c3ccc(Cl)cc3)CC2)cc1 (configuration not stated)
TGI [1]: > 100 µM | TGI [2]: > 100 µM | TGI [3]: > 100 µM | TGI [4]: > 100 µM | TGI [5]: > 100 µM | TGI [6]: 85.1 µM | TGI [7]: > 100 µM | TGI [8]: > 100 µM | TGI [9]: > 100 µM | TGI [10]: > 100 µM

CCCN1C(=O)CCC2=C1CCc1c2ccc(Cl)c1Cl
TGI [1]: > 100 µM | TGI [2]: > 100 µM | TGI [3]: > 100 µM | TGI [4]: 48.7 µM | TGI [5]: > 100 µM | TGI [6]: 91.4 µM | TGI [7]: > 100 µM | TGI [8]: 95.4 µM | TGI [9]: > 100 µM | TGI [10]: > 100 µM

N#Cc1[nH]c(=O)n(-c2ccc(Cl)cc2)c1N
TGI [1]: > 10 µM | TGI [2]: > 10 µM | TGI [3]: > 10 µM | TGI [4]: > 10 µM | TGI [5]: > 10 µM | TGI [6]: > 10 µM | TGI [7]: > 10 µM | TGI [8]: > 10 µM | TGI [10]: > 10 µM

CC(=O)OCC1OC(n2c(N)c(C#N)c(-c3ccccc3)c(C#N)c2=S)C(OC(C)=O)C(OC(C)=O)C1OC(C)=O (configuration not stated)
TGI [1]: > 100 µM | TGI [2]: 59.1 µM | TGI [3]: > 100 µM | TGI [4]: > 100 µM | TGI [5]: > 100 µM | TGI [6]: > 100 µM | TGI [7]: > 93 µM | TGI [8]: > 100 µM | TGI [9]: > 100 µM | TGI [10]: > 100 µM

COC(=O)CC1(CNC(=O)OCc2ccccc2)OCCO1
TGI [1]: > 100 µM | TGI [2]: > 100 µM | TGI [3]: > 100 µM | TGI [4]: > 100 µM | TGI [5]: > 100 µM | TGI [6]: > 100 µM | TGI [7]: > 100 µM | TGI [8]: > 100 µM | TGI [9]: > 100 µM | TGI [10]: > 100 µM
